Experimental data taken from patent publication US20230124548A1, “Therapeutic Methods And Uses Thereof” (Eustralis Pharmaceuticals Limited (Trading As Pressura …, priority 2019, published 2023).
Read-outs that look alike come from different tables or passages of the source.

Legend:
[1] = Plasma concentrations in the apomorphine challenge study; assay type: in vivo, human
Description: (§1) A pharmacodynamic study to assess functional blocking of central NK1 receptors was performed in healthy volunteers. This was done by testing the efficacy of the compound in blocking apomorphine induced emesis. This study indicates the need for a minimum concentration of the initial peak at infusion to obtain efficacious levels, rather than minimal plasma-levels at the time of apomorphine challenge.
(§2) In the phase 1 apomorphine challenge study the ability of the compound to block emesis induced by apomorphine was tested in healthy volunteers. […] At neither time point did subjects require rescue medication to prevent uncontrolled vomiting. On the other hand, when the apomorphine challenge was performed 2 hours after a 30 mg dose (n=5), an average of 4.2 retches and vomits were observed, which would have been even higher had two of five subjects not received rescue medication to block the apomorphine effects. Importantly the plasma concentration of the Compound 2 hours after the 30 mg dose was 60% higher than the plasma concentration 20 hours after the 90 mg dose.

[2] = Intracranial pressure (ICP) curves in clinical trial patients, slow 2-hour infusion; assay type: in vivo, human; settings: two patients, slow infusion over 2 hours
Description: In order to avoid any potential safety issues, the infusion in human clinic trials was slowed down to 2 hours to generate the same AUC but a lower Cmax.
However two patients were treated in a clinical trial, using a slow infusion rate over a timespan of 2 hours.

[3] = Solubility assessment and pH of solution; assay type: physicochemical
Description: Ethanol was also assessed as part of this study.

central NK1 receptors = target: T1, central NK1 receptors (Homo sapiens, UniProt P25103); test: Phase 1 apomorphine challenge study: blocking of apomorphine induced emesis in healthy volunteers; assay type: in vivo; settings: for Average Number of Retches or Vomits / Number of Retches (Events) / Number of Retches (Subjects) / Number of Vomits (Subjects) / Number of Vomits (Events): N = 5
T1 construct: from tissue; host or cells: central nervous system of healthy human volunteers (in vivo)
Description: as §1, §2

[4] = 30 mg, apomorphine challenge 2 h after dose
[5] = 90 mg, apomorphine challenge 2 h after dose
[6] = 90 mg, apomorphine challenge 20 h after dose

T1 sequence (P25103 whole entry): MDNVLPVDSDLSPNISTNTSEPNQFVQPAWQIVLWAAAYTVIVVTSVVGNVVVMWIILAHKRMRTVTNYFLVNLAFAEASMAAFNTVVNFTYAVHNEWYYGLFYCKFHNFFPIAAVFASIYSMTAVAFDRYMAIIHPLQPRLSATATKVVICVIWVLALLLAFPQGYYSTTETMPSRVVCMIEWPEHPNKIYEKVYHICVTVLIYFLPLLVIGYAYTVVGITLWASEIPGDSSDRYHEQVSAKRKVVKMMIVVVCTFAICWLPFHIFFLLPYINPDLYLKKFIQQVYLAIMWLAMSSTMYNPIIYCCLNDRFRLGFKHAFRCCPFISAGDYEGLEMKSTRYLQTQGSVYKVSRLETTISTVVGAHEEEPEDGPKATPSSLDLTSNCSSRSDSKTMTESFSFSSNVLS

plasma concentration 2 hours after the 30 mg dose, higher than plasma concentration 20 hours after the 90 mg dose ([1]; 30 mg/2 h versus 90 mg/20 h): 60%
Cmax ([1]; human, plasma, intravenous, 30 mg, apomorphine challenge 2 h after dose, N = 5, read-out: Cmax at end of infusion): 252 ng/mL
Cmax ([1]; human, plasma, intravenous, 90 mg, apomorphine challenge 2 h after dose, N = 5, read-out: Cmax at end of infusion): 1040 ng/mL
Cmax ([1]; human, plasma, intravenous, 90 mg, apomorphine challenge 20 h after dose, N = 5, read-out: Cmax at end of infusion): 1270 ng/mL
Cmax ([1]; human, plasma, intravenous, 90 mg, healthy volunteers, apomorphine challenge, read-out: minimum initial peak level (Cmax) at infusion to obtain efficacious levels / central NK1 blockade): 1000 to 1300 ng/mL
concentration at 2 h ([1]; human, plasma, intravenous, 30 mg, apomorphine challenge 2 h after dose, N = 5, read-out: Conc. at challenge): 112 ng/mL
concentration at 2 h ([1]; human, plasma, intravenous, 90 mg, apomorphine challenge 2 h after dose, N = 5, read-out: Conc. at challenge): 356 ng/mL
concentration at 20 h ([1]; human, plasma, intravenous, 90 mg, apomorphine challenge 20 h after dose, N = 5, read-out: Conc. at challenge): 69 ng/mL
Solubility in Water, Result ([3]; 5 mg/mL (50 mg in 10 mL water)): Very soluble
pH of solution ([3]; 5 mg/mL in water): 2.39
Solubility in Water, Result ([3]; 10 mg/mL (100 mg in 10 mL water)): Very soluble
pH of solution ([3]; 10 mg/mL in water): 2.14
Solubility in Water, Result ([3]; 15 mg/mL (150 mg in 10 mL water)): Soluble
pH of solution ([3]; 15 mg/mL in water): 2.02
Solubility in Water, Result ([3]; 20 mg/mL (200 mg in 10 mL water)): Soluble
pH of solution ([3]; 20 mg/mL in water): 1.87
Solubility in Water, Result ([3]; 25 mg/mL (250 mg in 10 mL water)): Soluble
pH of solution ([3]; 25 mg/mL in water): 1.81
Solubility in Water, Result ([3]; 30 mg/mL (300 mg in 10 mL water)): Soluble
pH of solution ([3]; 30 mg/mL in water): 1.75
Solubility in Water, Result ([3]; 35 mg/mL (350 mg in 10 mL water)): Soluble
pH of solution ([3]; 35 mg/mL in water): 1.72
Solubility in Water, Result ([3]; 40 mg/mL (400 mg in 10 mL water)): Soluble
pH of solution ([3]; 40 mg/mL in water): 1.66
Solubility in Water, Result ([3]; 45 mg/mL (450 mg in 10 mL water)): Soluble
pH of solution ([3]; 45 mg/mL in water): 1.54
Solubility in Water, Result ([3]; 50 mg/mL (500 mg in 10 mL water)): Soluble
pH of solution ([3]; 50 mg/mL in water): 1.52
Solubility ([3]; 50 mg/mL, stated after 'Ethanol was also assessed', solvent not explicit, golden yellow colour): freely soluble
SMILES: Cc1ccccc1-c1cc(N2CCN(C)CC2)ncc1C(=O)N(C)Cc1cc(C(F)(F)F)cc(C(F)(F)F)c1 [Compound of Formula (I) 2HCl (R1 = CH3)]
efficacy on ICP (ICP curves) [2]: no or minimal efficacy
Average Number of Retches or Vomits (central NK1 receptors; [4]): 4.2
Number of Retches (Events) (central NK1 receptors; [4]): 9
Number of Retches (Subjects) (central NK1 receptors; [4]): 2
Number of Vomits (Subjects) (central NK1 receptors; [4]): 3
Number of Vomits (Events) (central NK1 receptors; 30 mg, apomorphine challenge 2 h after dose, 2 of 5 subjects rescued): > 12
Average Number of Retches or Vomits (central NK1 receptors; [5]): 1.4
Number of Retches (Events) (central NK1 receptors; [5]): 5
Number of Retches (Subjects) (central NK1 receptors; [5]): 2
Number of Vomits (Events) (central NK1 receptors; [5]): 2/2
Number of Vomits (Subjects) (central NK1 receptors; [5]): 2/2
Average Number of Retches or Vomits (central NK1 receptors; [6]): 2.6
Number of Retches (Events) (central NK1 receptors; [6]): 12
Number of Retches (Subjects) (central NK1 receptors; [6]): 4
Number of Vomits (Events) (central NK1 receptors; [6]): 1/1
Number of Vomits (Subjects) (central NK1 receptors; [6]): 1/1
duration of reduction of retches/vomits once NK1 blockade is achieved (central NK1 receptors; after peak level of at least 1000-1300 ng/ml): ≥ 20 h
